Experimental findings from US10449152B2, “Drug loaded microspheres for post-operative chronic pain” (priority 2014, dated 2019) are described below.

Test [1] has as its system sciatic nerve. In words: sciatic nerve block in rats (paw pinch, motor block). The class given is in vivo. To be noted: single bolus of about 0.4 milliliters at the sciatic nerve. The protocol: The microspheres of Example 1 were also tested for sciatic nerve block and for subcutaneous infiltration anesthesia in rats. Sciatic nerves were injected with nominal doses of microspheres of Example 1, having about 40 milligrams of bupivacaine, by injection as a single bolus of about 0.4 milliliters. […] Half-recovery of these respective functions occurred at about 42±6 hours and 36±3 hours, and normal, pre-block function was restored by about 63±8 hours for nociception and about 56±7 hours for motor block. By comparison, injection of about 0.4 milliliters of about 0.5% by weight aqueous bupivacaine solution gave complete blocks for only about 0.5 hours to about 1 hours for nociception and about 1 hour for motor functions, with complete recovery by about 3 hours for both functions.

Test [2] has as its system post-operative hyperalgesia after paw incision. Description: paw incision post-operative hyperalgesia, injection at the sciatic nerve. The class given is in vivo, rats. Particulars: nerve block before paw incision. The method, then: Microspheres of Example 1 were also tested for anti-hyperalgesic effects after rodent surgery. […] If microspheres of Example 1 were injected at the sciatic nerve approximately 1.5 hours before the surgery, the subsequent post-operative hyperalgesia was suppressed for about 4 days. In contrast, nerve block by 0.5% by weight aqueous bupivacaine solution suppressed post-operative hyperalgesia for about 6 hours. Microspheres of Example 2 were ineffective against post-incisional pain.

The test system of test [3] is post-operative allodynia and hyperalgesia. Description: incision and blunt dissection of the back skin, post-operative allodynia and hyperalgesia. The class given is in vivo, rats. To be noted: about 0.4 milliliters subcutaneous infiltration. The method, then:
In a second surgical scenario, Microspheres of Example 1 were injected as a subcutaneous infiltration in the thoraco-lumbar region before an incision and blunt dissection of the back skin. Microspheres of Example 1, including about 40 milligrams of bupivacaine, were injected as a single bolus of about 0.4 milliliters. The injection produced anesthesia to VFH pokes at the injected area for about 6 hours and anesthesia to pin pricks for about 12 hours. Post-operative allodynia and hyperalgesia in this model lasted for about 14 days, but were suppressed for approximately 5 days and 3 days, respectively, by microspheres of Example 1 injected approximately 2 hours before surgery. About 0.4 milliliters of 0.5% by weight aqueous bupivacaine solution was ineffective in reducing post-operative hypersensitivity, just as the microspheres of Example 2 were also ineffective.

In test [4] the test system is sciatic nerve. Description: sciatic nerve block, latency for leg withdrawal from noxious heat. To be noted: about 0.6 milliliters next to the sciatic nerve; heat stimulus of about 56° C. The class given is in vivo, male S-D rats. The protocol: The anti-nociceptive activity of EXPAREL® particles was also tested. The latency for leg withdrawal in male S-D rats from a noxious heat stimulus of about 56° C. applied to the plantar surface of the paw was used to test the duration of functional sciatic nerve block achieved using EXPAREL®. The normal latency for paw withdrawal was about 2 seconds and “maximal sensory blockade” was characterized by a latency of about 12 seconds. Sensory blockade of about 0.6 milliliters of EXPAREL® containing about 7.8 milligrams of bupivacaine, injected next to the sciatic nerve of an adult male S-D rat weighing from about 310 grams to about 420 grams, which was equivalent to about 25 milligrams of bupivacaine per kilogram, was determined by the time from injection until the latency returned to about 7 seconds, half way back to the pre-injection latency of about 2 seconds. By this criterion, the sensing block from EXPAREL® lasted about 240 minutes, and that from 0.6 milliliter solution of about 0.5% by weight bupivacaine, which was used as a control, lasted about 120 minutes.

Turning to `CCCCN1CCCCC1C(=O)Nc1c(C)cccc1C` (stereo not drawn) [bupivacaine], in the test with sciatic nerve [1], the “duration of complete motor block (total flaccid paralysis)” value is given as “about 1 hours”; the “time to normal, pre-block function (complete recovery), motor” value is “about 3 hours”; the “time to normal, pre-block function (complete recovery), nociception” value is given as “about 3 hours”. For the same compound, the “time for which post-operative hyperalgesia was suppressed” value in test [2] is “about 6 hours”. Moreover, the “reduction of post-operative hypersensitivity” value in test [3] is reported as “ineffective”. For the same compound, the “duration of sensory block (time until latency returned to about 7 seconds)” value with sciatic nerve [4] is “about 120 minutes”.
